# Marks after values point to notes of the source that are not given here.
# Assays:
# B16-BL6 melanoma cells [1] = test: B16-BL6 melanoma pulmonary metastasis model, intraperitoneal treatment; type: in vivo, C57B1/6 mice; details: for angiogenesis inhibitory activity (comparison in words): B16-BL6 metastasis studies; for angiogenesis inhibitory activity (comparison in words) / T/C (ratio of lung metastases of treated vs. control animals) / Mean Number of Pulmonary Metastases / % Inhibition / IC50 (50% inhibition of surface metastasis): i.p.; for T/C (ratio of lung metastases of treated vs. control animals): 0.4 mmol/kg in 2.8% DMSO; for T/C (ratio of lung metastases of treated vs. control animals) / % Inhibition: from 72 hours after tumor cells, day 14; for Mean Number of Pulmonary Metastases / % Inhibition: 1.0 ml of 5.0 mg/ml in 2.8% DMSO; for Mean Number of Pulmonary Metastases: four times a day from 72 hours after tumor cells, surface lung metastases counted day 14; for % Inhibition: versus DMSO control, p < 0.01; for IC50 (50% inhibition of surface metastasis): varying doses, average of three experiments, 7-R-(+) tested once at each dose, up to 0.8 mmol/kg; for anti-tumor activity (summary in words): summary of Tables 1 and 2, at the tested doses
# Procedure: B16-BL6 melanoma cells (5×10^4) were injected intravenously into the tail veins of C57B1/6 mice. The mice were given intraperitoneal (i.p.) treatments of either 1.0 ml 2.8% DMSO alone (control), 1.0 ml (5.0 mg/ml 2.8% DMSO) 2-phthalimidinoglutaric acid (EM-138) in DMSO, or 1.0 ml (5.0 mg/ml 2.8%) 2-methyl-2-phthalimidinoglutaric acid (2-Me-EM-138) in DMSO four times a day beginning 72 hours after injection of the tumor cells. Fourteen days after tumor cell inoculation, the lungs were removed from the mice and the surface pulmonary metastases were counted.
# B16-BL6 melanoma cells (5×10^4) were injected intravenously into the tail veins of C57B1/6 mice. The mice were given intraperitoneal (i.p.) treatments of either 1.0 ml 2.8% DMSO alone (control), 1.0 ml (5.0 mg/ml) DL-2-methyl-2-phthalimidinoglutaric acid (racemate) in 2.8% DMSO, 1.0 ml (5.0 mg/ml) (R)-(+)-2-methyl-2-phthalimidinoglutaric acid (JS-2-13-P1) in 2.8% DMSO, or (S)-(−)-2-methyl-2-phthalimidinoglutaric acid (JS-2-13-P2) in 2.8% DMSO four times a day beginning 72 hours after injection of the tumor cells. Fourteen days after tumor cell inoculation, the lungs were removed from the mice and the surface pulmonary metastases were counted.
# B16-BL6 melanoma cells (5×10^4) were injected intravenously into the tail veins of C57B1/6 mice. The mice were given intraperitoneal (i.p.) treatments of one of the following solutions four times a day beginning 72 hours after injection of the tumor cells. [drawing 4] • 1.0 ml of thalidomide in 2.8% DMSO • 1.0 ml of 3′-hydroxy-2-phthalimidinoglutaric acid in 2.8% DMSO (compound 5a) • 1.0 ml of 4′-hydroxy-2-phthalimidinoglutaric acid in 2.8% DMSO (compound 5b) • 1.0 ml of 2-phthalimidinoglutaric acid (EM-138) in 2.8% DMSO (compound 5c) • 1.0 ml of DL-2-methyl-2-phthalimidinoglutaric acid (racemate) in 2.8% DMSO (compound 7) • 1.0 ml of (R)-(+)-2-methyl-2-phthalimidinoglutaric acid (JS-2-13-P1) in 2.8% DMSO (compound 7-R-(+)) • 1.0 ml of (S)-(−)-2-methyl-2-phthalimidinoglutaric acid (JS-2-13-P2) in 2.8% DMSO (compound 7-S-(−))
# A dose of 0.4 mmol/kg was used for each compound tested. Fourteen days after tumor cell inoculation, the lungs were removed from the mice and the surface pulmonary metastases were counted.
# This experiment was repeated at varying doses. The in the following table represent the average values for three of the experiment.
# [2] = tested on: vascular endothelial cell proliferation; details: endothelial versus tumor cell proliferation in vitro; cited from earlier work
# Resistance to hydrolysis = type: physicochemical; details: compared with thalidomide
# [3] = Racemization of enantiomers; type: physicochemical
# B16-BL6 melanoma cells [4] = test: B16-BL6 melanoma pulmonary metastasis model, oral (gavage) treatment; type: in vivo, C57B1/6 mice
# Procedure: B16-BL6 melanoma cells (5×10^4) were injected intravenously into the tail veins of C57B1/6 mice. Three days later, the mice received a gavage treatment with 0.8 mmol/kg of 2-phthalimidinoglutaric acid (EM-138). The mice received either a single treatment, five treatments on alternate days, or one treatment every day for eleven days. Fourteen days after tumor cell inoculation, the lungs were removed from the mice and the surface pulmonary metastases were counted. The values shown are the mean of 5 mice per group. The bars on the graph represent the standard deviation.
# B16-BL6 melanoma cells (5×10^4) were injected intravenously into the tail veins of C57B1/6 mice. The mice were given a single oral treatment of 2-phthalimidinoglutaric acid (EM-138) of 0.8 mmol/kg. The treatment was initiated one day prior to tumor cells or on day 1, 2, 3, 5, or 7 after tumor cells. Fourteen days after tumor cell inoculation, the lungs were removed from the mice and the surface pulmonary metastases were counted. The values shown are the mean of 5 mice per group. The bars on the graph represent the standard deviation.
SMILES,T/C (ratio of lung metastases of treated vs. control animals) (B16-BL6 melanoma cells [1]),IC50 (50% inhibition of surface metastasis) (B16-BL6 melanoma cells [1]),anti-tumor activity (summary in words) (B16-BL6 melanoma cells [1]),further results
"CC(CCC(=O)O)(C(=O)O)N1Cc2ccccc2C1=O (racemic) [Compound 7, DL-2-methyl-2-phthalimidinoglutaric acid]",0.25,0.2^a mmol/kg,considerably greater inhibitory activity than thalidomide,angiogenesis inhibitory activity (comparison in words) (B16-BL6 melanoma cells [1]): as potent an inhibitor of angiogenesis as EM-138; Mean Number of Pulmonary Metastases (B16-BL6 melanoma cells [1]): 84; % Inhibition (B16-BL6 melanoma cells [1]): 60%
"C[C@@](CCC(=O)O)(C(=O)O)N1Cc2ccccc2C1=O [7-R-(+), (R)-(+)-2-methyl-2-phthalimidinoglutaric acid]",0.7,No activity^b,little or no activity,–
"C[C@](CCC(=O)O)(C(=O)O)N1Cc2ccccc2C1=O [7-S-(−), (S)-(−)-2-methyl-2-phthalimidinoglutaric acid]",0.15,0.1^a mmol/kg,–,angiogenesis inhibitory activity (comparison in words) (B16-BL6 melanoma cells [1]): greater angiogenesis inhibitory activity than does the (R) isomer
CO[C@@H]1[C@H](OC(=O)NC(=O)CCl)CC[C@]2(CO2)[C@H]1[C@@]1(C)O[C@@H]1CC=C(C)C [AGM-1470],–,–,–,half-maximal inhibition of endothelial cell proliferation at lower concentration than tumor cell proliferation [2]: 4 logs
"O=C(O)CCC(C(=O)O)N1C(=O)c2ccccc2C1O (centres unmarked) [Compound 5a, 3′-hydroxy-2-phthalimidinoglutaric acid]",0.95,–,–,–
"O=C(O)CCC(C(=O)O)N1Cc2c(O)cccc2C1=O (centres unmarked) [Compound 5b, 4′-hydroxy-2-phthalimidinoglutaric acid]",0.9,–,–,–
"O=C(O)CCC(C(=O)O)N1Cc2ccccc2C1=O (centres unmarked) [Compound 5c, 2-phthalimidinoglutaric acid]",0.2,0.2^a mmol/kg,considerably greater inhibitory activity than thalidomide,resistance to hydrolysis (Resistance to hydrolysis): relatively resistant to hydrolysis; racemization of enantiomers [3]: readily racemize; Mean Number of Pulmonary Metastases (B16-BL6 melanoma cells [1]): 85; % Inhibition (B16-BL6 melanoma cells [1]): 60%; inhibition of metastasis (B16-BL6 melanoma cells [4]; dose of 0.8 mmol/kg/day): greater than 90%; inhibition of metastasis (B16-BL6 melanoma cells [4]; single dose): 50%
"O=C1CCC(N2C(=O)c3ccccc3C2=O)C(=O)N1 (centres unmarked) [Thalidomide, thalidomide, reference compound]",0.9,3.2^a mmol/kg,–,–

# Reference: patent US7112602B2, “Methods of treating undesired angiogenesis with 2-methyl-EM-138” (The Children's Medical Center Corporation, priority 1998, dated 2006)
